In brackets after ≈: the same amount, converted by molar mass. Entries after “also recorded” stand apart in the source; their conditions may differ. Read-outs that look alike come from different tables or passages of the source.
Legend:
Assay type in all cases: physicochemical
[1] = Form change on heating or on storage at room temperature, XRPD
[2] = Stability of crystalline forms under dry (vacuum, 45° C.) and humid (RH >95%) conditions, XRPD; conditions: for XRPD pattern after drying at 45° C. (under vacuum): dried under vacuum at 45° C.; for Form change after exposing the dried sample to high humidity conditions (XRPD): after drying at 45° C. under vacuum, then high humidity (RH >95%)
Method: For dry conditions, the sample was dried under vacuum at 45° C. followed by XRPD analysis. Later the sample was subjected to high humidity conditions (RH >95%) followed by XRPD analysis.
The MeOH and DCM solvates of Compound (I) were dried on XRPD plates under vacuum at 45° C. and were analyzed by XRPD the following day.
Pattern E was dried at 45° C. under vacuum overnight and analyzed by XRPD. The following day, it was subjected to high humidity conditions (>95%) and later analyzed by XRPD the next day. […] FIG. 26 illustrates the XRPD comparison of dried and humid samples with Compound (I), Form I, Pattern A.

[3] = Dynamic vapor sorption (DVS) with post-DVS XRPD; conditions: for Post DVS XRPD (crystalline form after DVS): XRPD of the post-DVS sample
Method: Samples were analyzed using an Aquadyne DVS-2 gravimetric water sorption analyzer. The relative humidity was adjusted between 2-95% and the weight of the sample was continuously monitored and recorded with respect to the relative humidity and time.
The material was subjected under Dynamic Vapor Sorption (DVS, FIG. 6).

[4] = Solid form stability test (up to 7 days) under high humidity, XRPD
Method: In one aspect, provided herein is 2-((2-chlorophenyl)(phenyl)amino)-N-(7-(hydroxyamino)-7-oxoheptyl)pyrimidine-5-carboxamide of Form I (referred to herein as “Form I”). Form I (of Compound (I)) was observed under a polarized microscope and its crystalline nature was determined by using X-ray powder diffraction (XRPD) and Pattern A was assigned to it for identification (See Example 3). The chemical structure of the material was confirmed by proton-nuclear magnetic resonance (^1H-NMR) and the thermal characterization of the material was carried out by differential scanning calorimetry (DSC) and thermal gravimetric analysis (TGA) (see Examples 2 and 3). […] The XRPD analysis of this form including peak identification is found in Example 11 (See FIG. 40).

[5] = Solubility assessment of Form I, gravimetric, slurried 48 h in solvents/solvent mixtures; conditions: thermodynamic from solid
Method: The Solubility of Form I was measured gravimetrically in 15 different solvents and solvent mixtures at 15 and 45° C. About 75 mg of the compound was dispensed in 10 volumes (750 μL) of the solvent/solvent mixture and slurried for 48 h.
The vials were centrifuged. The supernatant was collected and left for slow evaporation under vacuum at 45° C. The solids obtained after evaporation were used to determine the solubility of Form I and analyzed by XRPD for any new forms.

[6] = Dynamic vapor sorption (DVS) with post-DVS XRPD; conditions: relative humidity between 0-95%
[7] = exposed to high humidity conditions

O=C(CCCCCCNC(=O)c1cnc(N(c2ccccc2)c2ccccc2Cl)nc1)NO [Pattern J]
XRPD pattern after storage ([1]; room temperature, reanalyzed after three days): Pattern A
XRPD pattern after drying at 45° C. (under vacuum) [2]: Pattern A

O=C(CCCCCCNC(=O)c1cnc(N(c2ccccc2)c2ccccc2Cl)nc1)NO [Form V, 2-((2-chlorophenyl)(phenyl)amino)-N-(7-(hydroxyamino)-7-oxoheptyl)pyrimidine-5-carboxamide]
Post DVS XRPD (crystalline form after DVS) [3]: Pattern F, Form VI
Post DVS XRPD (crystalline form after DVS) ([3]; listed as Pattern E): Pattern F
Moisture uptake (DVS) [3, 7]: < 0.15%
Form change after exposing the dried sample to high humidity conditions (XRPD) [2]: no further form change
XRPD pattern after drying at 45° C. (under vacuum) [2]: Form VI, Pattern F
XRPD pattern after drying at 45° C. (under vacuum) ([2]; listed as Pattern E): Pattern F (Form VI)

O=C(CCCCCCNC(=O)c1cnc(N(c2ccccc2)c2ccccc2Cl)nc1)NO [Form I, 2-((2-chlorophenyl)(phenyl)amino)-N-(7-(hydroxyamino)-7-oxoheptyl)pyrimidine-5-carboxamide]
Solid form stability under high humidity (XRPD) [4]: stability of Form I up to seven days; also recorded: stable under high humidity up to a week
solubility at 48 h ([5]; aqueous with cosolvent or surfactant or cyclodextrin, EtOH:H2O (1:1), temperature not stated, read-out: Solubility (moderately soluble)): 10 to 55 mg/mL (≈ 21.4 to 118 mM)
solubility at 48 h ([5]; aqueous with cosolvent or surfactant or cyclodextrin, acetone:H2O (1:1), temperature not stated, read-out: Solubility (moderately soluble)): 10 to 55 mg/mL (≈ 21.4 to 118 mM)
solubility at 48 h ([5]; organic solvent or mixture, Acetone, 15° C., read-out: Solubility): 2 mg/mL (≈ 4.27 mM)
solubility at 48 h ([5]; organic solvent or mixture, Acetone, 45° C., read-out: Solubility): 11 mg/mL (≈ 23.5 mM)
solubility at 48 h ([5]; organic solvent or mixture, Acetone:H2O (95:5), 15° C., read-out: Solubility): 21 mg/mL (≈ 44.9 mM)
solubility at 48 h ([5]; organic solvent or mixture, Acetone:H2O (95:5), 45° C., read-out: Solubility): 48 mg/mL (≈ 103 mM)
solubility at 48 h ([5]; organic solvent or mixture, Acetonitrile (ACN), 15° C., read-out: Solubility): < 1 mg/mL
solubility at 48 h ([5]; organic solvent or mixture, Acetonitrile (ACN), 45° C., read-out: Solubility): 1 mg/mL (≈ 2.14 mM)
solubility at 48 h ([5]; organic solvent or mixture, DCM, temperature not stated, read-out: Solubility (less soluble)): < 1 mg/mL
solubility at 48 h ([5]; organic solvent or mixture, DMA, temperature not stated, read-out: Solubility (freely soluble)): > 100 mg/mL
solubility at 48 h ([5]; organic solvent or mixture, Dimethylacetamide (DMA), 15° C., read-out: Solubility): > 100 mg/mL
solubility at 48 h ([5]; organic solvent or mixture, Dimethylacetamide (DMA), 45° C., read-out: Solubility): > 100 mg/mL
solubility at 48 h ([5]; organic solvent or mixture, EtOAc, temperature not stated, read-out: Solubility (less soluble)): < 1 mg/mL
solubility at 48 h ([5]; organic solvent or mixture, EtOH, temperature not stated, read-out: Solubility (moderately soluble)): 10 to 55 mg/mL (≈ 21.4 to 118 mM)
solubility at 48 h ([5]; organic solvent or mixture, EtOH:H2O (95:5), 15° C., read-out: Solubility): 18 mg/mL (≈ 38.5 mM)
solubility at 48 h ([5]; organic solvent or mixture, EtOH:H2O (95:5), 45° C., read-out: Solubility): 53 mg/mL (≈ 113 mM)
solubility at 48 h ([5]; organic solvent or mixture, Ethanol (EtOH), 15° C., read-out: Solubility): 11 mg/mL (≈ 23.5 mM)
solubility at 48 h ([5]; organic solvent or mixture, Ethanol (EtOH), 45° C., read-out: Solubility): 39 mg/mL (≈ 83.3 mM)
solubility at 48 h ([5]; organic solvent or mixture, Ethyl acetate (EtOAc), 15° C., read-out: Solubility): < 1 mg/mL
solubility at 48 h ([5]; organic solvent or mixture, Ethyl acetate (EtOAc), 45° C., read-out: Solubility): 1 mg/mL (≈ 2.14 mM)
solubility at 48 h ([5]; organic solvent or mixture, Heptane (HEP), 15° C., read-out: Solubility): < 1 mg/mL
solubility at 48 h ([5]; organic solvent or mixture, Heptane (HEP), 45° C., read-out: Solubility): < 1 mg/mL
solubility at 48 h ([5]; organic solvent or mixture, IPA, temperature not stated, read-out: Solubility (slightly soluble)): ~2 mg/mL (≈ 4.27 mM)
solubility at 48 h ([5]; organic solvent or mixture, Isopropanol (IPA), 15° C., read-out: Solubility): 1 mg/mL (≈ 2.14 mM)
solubility at 48 h ([5]; organic solvent or mixture, Isopropanol (IPA), 45° C., read-out: Solubility): 12 mg/mL (≈ 25.6 mM)
solubility at 48 h ([5]; organic solvent or mixture, MeOH, temperature not stated, read-out: Solubility (freely soluble)): > 100 mg/mL
solubility at 48 h ([5]; organic solvent or mixture, Methanol (MeOH), 15° C., read-out: Solubility): 11 mg/mL (≈ 23.5 mM)
solubility at 48 h ([5]; organic solvent or mixture, Methanol (MeOH), 45° C., read-out: Solubility): > 100 mg/mL
solubility at 48 h ([5]; organic solvent or mixture, TBME, temperature not stated, read-out: Solubility (less soluble)): < 1 mg/mL
solubility at 48 h ([5]; organic solvent or mixture, TFE, temperature not stated, read-out: Solubility (freely soluble)): > 100 mg/mL
solubility at 48 h ([5]; organic solvent or mixture, THF, temperature not stated, read-out: Solubility (moderately soluble)): 10 to 55 mg/mL (≈ 21.4 to 118 mM)
solubility at 48 h ([5]; organic solvent or mixture, Tert-butyl methyl ether (TBME), 15° C., read-out: Solubility): < 1 mg/mL
solubility at 48 h ([5]; organic solvent or mixture, Tert-butyl methyl ether (TBME), 45° C., read-out: Solubility): 2 mg/mL (≈ 4.27 mM)
solubility at 48 h ([5]; organic solvent or mixture, Tetrahydrofuran (THF), 15° C., read-out: Solubility): 13 mg/mL (≈ 27.8 mM)
solubility at 48 h ([5]; organic solvent or mixture, Tetrahydrofuran (THF), 45° C., read-out: Solubility): 50 mg/mL (≈ 107 mM)
solubility at 48 h ([5]; organic solvent or mixture, acetone, temperature not stated, read-out: Solubility (slightly soluble)): ~2 mg/mL (≈ 4.27 mM)
solubility at 48 h ([5]; organic solvent or mixture, acetonitrile, temperature not stated, read-out: Solubility (less soluble)): < 1 mg/mL
solubility at 48 h ([5]; organic solvent or mixture, heptane, temperature not stated, read-out: Solubility (less soluble)): < 1 mg/mL
solubility at 48 h ([5]; Water (H2O), 15° C., read-out: Solubility): < 1 mg/mL
solubility at 48 h ([5]; Water (H2O), 45° C., read-out: Solubility): < 1 mg/mL
solubility at 48 h ([5]; water, temperature not stated, read-out: Solubility (less soluble)): < 1 mg/mL
solubility at 48 h ([5]; trifluoroethanol (TFE), organic solvent or mixture, Trifluoro Ethanol (TFE), 15° C., read-out: Solubility): > 100 mg/mL
solubility at 48 h ([5]; trifluoroethanol (TFE), organic solvent or mixture, Trifluoro Ethanol (TFE), 45° C., read-out: Solubility): > 100 mg/mL
Hygroscopicity [3]: low hygroscopicity
Post DVS XRPD (crystalline form after DVS) [3]: no change in the crystalline form; also recorded: Pattern A,
Moisture uptake (DVS) [6]: less than 0.2%
XRPD pattern after drying at 45° C. (under vacuum) [2]: Pattern A,

O=C(CCCCCCNC(=O)c1cnc(N(c2ccccc2)c2ccccc2Cl)nc1)NO [Form III, 2-((2-chlorophenyl)(phenyl)amino)-N-(7-(hydroxyamino)-7-oxoheptyl)pyrimidine-5-carboxamide]
Post DVS XRPD (crystalline form after DVS) [3]: Pattern D,
Post DVS XRPD (crystalline form after DVS) ([3]; listed as Pattern C): Pattern D
Weight change (DVS) [3, 7]: around 1.5%
XRPD pattern after drying at 45° C. (under vacuum) [2]: Pattern D,
XRPD pattern after drying at 45° C. (under vacuum) ([2]; listed as Pattern C): Pattern D

O=C(CCCCCCNC(=O)c1cnc(N(c2ccccc2)c2ccccc2Cl)nc1)NO [Form IX, 2-((2-chlorophenyl)(phenyl)amino)-N-(7-(hydroxyamino)-7-oxoheptyl)pyrimidine-5-carboxamide]
Post DVS XRPD (crystalline form after DVS) [3]: Pattern D,
Post DVS XRPD (crystalline form after DVS) ([3]; listed as Pattern I): Pattern D
XRPD pattern after drying at 45° C. (under vacuum) [2]: Pattern D (Form IV)
XRPD pattern after drying at 45° C. (under vacuum) ([2]; listed as Pattern I): Pattern D

O=C(CCCCCCNC(=O)c1cnc(N(c2ccccc2)c2ccccc2Cl)nc1)NO [Form VII, 2-((2-chlorophenyl)(phenyl)amino)-N-(7-(hydroxyamino)-7-oxoheptyl)pyrimidine-5-carboxamide]
Post DVS XRPD (crystalline form after DVS) [3]: Pattern H,
Post DVS XRPD (crystalline form after DVS) ([3]; listed as Pattern G): Pattern H
Form change after exposing the dried sample to high humidity conditions (XRPD) [2]: no further form change
XRPD pattern after drying at 45° C. (under vacuum) [2]: Form VIII (Pattern H)
XRPD pattern after drying at 45° C. (under vacuum) ([2]; listed as Pattern G): Pattern H

O=C(CCCCCCNC(=O)c1cnc(N(c2ccccc2)c2ccccc2Cl)nc1)NO [Form II, 2-((2-chlorophenyl)(phenyl)amino)-N-(7-(hydroxyamino)-7-oxoheptyl)pyrimidine-5-carboxamide]
XRPD pattern after heating ([1]; 130° C. for 30 minutes): Pattern A
Post DVS XRPD (crystalline form after DVS) [3]: Pattern D,
Post DVS XRPD (crystalline form after DVS) ([3]; listed as Pattern B): Pattern D
Weight change (DVS) [3, 7]: < 1%
XRPD pattern after drying at 45° C. (under vacuum) [2]: Pattern D,
XRPD pattern after drying at 45° C. (under vacuum) ([2]; listed as Pattern B): Pattern D

Reference: US10464906B2, “Crystalline forms of a histone deacetylase inhibitor” (Acetylon Pharmaceuticals, Inc., priority 2015, dated 2019)
